# According to US8519163B2, “Anti-tumor activity of AECHL-1, novel triterpenoid isolated from Ailanthus excelsa in vitro and in vivo” (National Centre for Cell Science, priority 2008, dated 2013):
# Where “and” joins values, the source holds several entries; their conditions need not be identical. Equal entries are not always repeated.
# Assays:
# p53 = assay: Immunocytochemistry, p53 translocation in MCF-7 cells; assay type: cell-based, human; conditions: AECHL-1 2-40 μM, 24 h, confocal microscopy
# Method: Immunocytochemistry was performed as described previously. […] Cells were incubated with primary anti-p53 antibodies (1:100; Abcam) and anti-α-tubulin antibodies (1:10000; Sigma chemical Co.) for 1 hour at room temperature. After washing with PBS, cells were incubated with CY2-conjugated secondary antibodies (1:200; Chemicon, Germany) and Alexa-conjugated secondary antibodies (1:10000; Sigma, St. Louis, Mo.) for 45 minutes and nuclear staining was done with DAPI. Images were captured under confocal microscope.
# The tumor suppressor p53 plays a critical role in preventing human cancer formation. It translocates into the nucleus and works as a transcription factor by upregulating cell cycle regulatory proteins and induces cell cycle arrest and/or programmed cell death (apoptosis) (11). […] After 24 h of incubation, the p53 translocation in the nucleus (green fluorescence) and microtubule network (red fluorescence) was visualized by confocal microscopy.
# MCF-7 cells = assay: Cell cycle analysis by flow cytometry; assay type: cell-based, human; conditions: for Phase of cell cycle (% of cells) G1 / Phase of cell cycle (% of cells) G2/M / Phase of cell cycle (% of cells) S / Phase of cell cycle (% of cells) Sub G0: 24 h
# Method: (§1) The cell cycle analysis of MCF-7, B16F10 MDA-MB-231 and PC3 cells was done by flow cytometry. […] Cells were harvested with trypsin (0.05%), 0.02% EDTA, 0.05% glucose and a single-cell suspension was prepared. Cells were washed and were pelleted by centrifugation (1000×g for 2 min) and fixed in 70% ethanol while vortexing and stored at 4° C. for 1 hour. Fixed cells were pelleted by centrifugation, to remove ethanol and washed with PBS. Cells were re-suspended in PBS containing 50 μg/ml propidium iodide, 0.1 g/L RNase and 1% BSA, incubated for 30 min at 37° C. in the dark, and analyzed with flow cytometry (FACS Vantage-BD Sciences, USA) equipped with an argon laser at 488 nm. The data was analyzed using Cell Quest software for determining the percent population in different phases of cell cycle.
# MDA-MB-231 cells = assay: Cell cycle analysis by flow cytometry; assay type: cell-based, human; conditions: for Phase of cell cycle (% of cells) G1 / Phase of cell cycle (% of cells) G2/M / Phase of cell cycle (% of cells) S / Phase of cell cycle (% of cells) Sub G0: 24 h
# Method: as §1
# PC3 cells = assay: Cell cycle analysis by flow cytometry; assay type: cell-based, human; conditions: for Phase of cell cycle (% of cells) G1 / Phase of cell cycle (% of cells) G2/M / Phase of cell cycle (% of cells) S / Phase of cell cycle (% of cells) Sub G0: 24 h
# Method: as §1
# [1] = system: MDA-MB-231 human breast carcinoma; assay: Cell viability (MTT) and proliferation ([3H]thymidine) assay; assay type: cell-based; conditions: 12, 24 and 48 h, concentration and time dependent
# Method: (§2) The cytotoxic effect of AECHL-1 on the HEK 293, B16F10, PC3, MCF 7 and MDA-MB-231 cells was measured by MTT assay as described in previous studies. The cells were dispensed in 96-well, flat bottom microtiter plates (Becton Dickinson Labware) at a density of 5×10^3 cells each well. […] MTT [3-(4,5-dimethylthiazol-2yl)-2,5-diphenyl tetrazolium bromide] solution (5 mg/ml in PBS) was added at the end of experiment to each well to a final concentration of 0.5 mg/ml, and the cultures were incubated for further 4 h. The resulting formazan crystals were dissolved in 100 μl dimethylsulfoxide (DMSO) and absorbance was measured in a microplate reader at 570 nm (Molecular Devices, Spectra MAX 250). The cytotoxic effect was expressed as a relative percentage of inhibition calculated as follows: Relative inhibition(%)=[(A570 control−A570 AECHL-1)A570 control]×100 Cell Proliferation Assay
# (§3) Aliquots of complete medium containing 5×10^3 cells (B16F10, PC3, MDA-MB-231 and MCF-7 cells) were distributed into 96-well tissue culture plates. […] After 6 h incubation, 1 μCi [^3H]thymidine was added to each well. Cells were harvested after 24 and 48 hrs of treatment on a glass filter paper with a 96-well auto-harvester and the amount of incorporated [^3H]thymidine was determined with a β-counter (Canberra packard).
# [2] = system: MCF-7 human breast cancer; assay: as above; assay type: cell-based
# Method: as §2, §3
# [3] = system: PC3 human prostate cancer cells; assay: as above; assay type: cell-based; conditions: 12, 24 and 48 h, concentration and time dependent
# Method: as §2, §3
# [4] = system: B16F10 mouse melanoma cells; assay: as above; assay type: cell-based; conditions: 12, 24 and 48 h, concentration and time dependent
# Method: as §2, §3
smiles,measurement,setting,value
C=C1C(OCC)C2(O)OCC34C(=C(C)c5c(C)cc(O)c(OCC)c5C23)OC(=O)C(OC(=O)C(C)(O)CC)C14 (stereo not drawn) [AECHL-1],p53 translocation in the nucleus,p53,translocation of the p53 into the nucleus
same,Phase of cell cycle (% of cells) G1,"MCF-7 cells; MCF-7, 4 μM",35.04%
same,Phase of cell cycle (% of cells) G2/M,"MCF-7 cells; MCF-7, 4 μM",36.65%
same,Phase of cell cycle (% of cells) S,"MCF-7 cells; MCF-7, 4 μM",27.20%
same,Phase of cell cycle (% of cells) Sub G0,"MCF-7 cells; MCF-7, 4 μM",1.61%
same,Phase of cell cycle (% of cells) G1,"MCF-7 cells; MCF-7, 10 μM",27.85%
same,Phase of cell cycle (% of cells) G2/M,"MCF-7 cells; MCF-7, 10 μM",36.78%
same,Phase of cell cycle (% of cells) S,"MCF-7 cells; MCF-7, 10 μM",34.19%
same,Phase of cell cycle (% of cells) Sub G0,"MCF-7 cells; MCF-7, 10 μM",1.99%
same,Phase of cell cycle (% of cells) G1,"MCF-7 cells; MCF-7, 20 μM",29.68%
same,Phase of cell cycle (% of cells) G2/M,"MCF-7 cells; MCF-7, 20 μM",31.98%
same,Phase of cell cycle (% of cells) S,"MCF-7 cells; MCF-7, 20 μM",37.44%
same,Phase of cell cycle (% of cells) Sub G0,"MCF-7 cells; MCF-7, 20 μM",1.81%
same,Phase of cell cycle (% of cells) G1,"MCF-7 cells; MCF-7, 40 μM",36.26%
same,Phase of cell cycle (% of cells) G2/M,"MCF-7 cells; MCF-7, 40 μM",29.42%
same,Phase of cell cycle (% of cells) S,"MCF-7 cells; MCF-7, 40 μM",32.50%
same,Phase of cell cycle (% of cells) Sub G0,"MCF-7 cells; MCF-7, 40 μM",2.55%
same,% of cells in G0/G1 phase,"MCF-7 cells; MCF-7, 100 μM",36.26%
same,cell count in S-G2/M phase,"MCF-7 cells; MCF-7, 100 μM, control 45.13",69.4%
same,phase of cell growth arrest,MCF-7 cells; MCF-7 cells,S-G2/M phase
same,Phase of cell cycle (% of cells) G1,"MDA-MB-231 cells; MDA-231, 10 μM",43.03%
same,Phase of cell cycle (% of cells) G2/M,"MDA-MB-231 cells; MDA-231, 10 μM",32.21%
same,Phase of cell cycle (% of cells) S,"MDA-MB-231 cells; MDA-231, 10 μM",24.06%
same,Phase of cell cycle (% of cells) Sub G0,"MDA-MB-231 cells; MDA-231, 10 μM",1.03%
same,Phase of cell cycle (% of cells) G1,"MDA-MB-231 cells; MDA-231, 20 μM",33.18%
same,Phase of cell cycle (% of cells) G2/M,"MDA-MB-231 cells; MDA-231, 20 μM",38.01%
same,Phase of cell cycle (% of cells) S,"MDA-MB-231 cells; MDA-231, 20 μM",28.63%
same,Phase of cell cycle (% of cells) Sub G0,"MDA-MB-231 cells; MDA-231, 20 μM",0.95%
same,Phase of cell cycle (% of cells) G1,"MDA-MB-231 cells; MDA-231, 40 μM",26.66%
same,Phase of cell cycle (% of cells) G2/M,"MDA-MB-231 cells; MDA-231, 40 μM",45.14% and 45.15%
same,Phase of cell cycle (% of cells) S,"MDA-MB-231 cells; MDA-231, 40 μM",28.12%
same,Phase of cell cycle (% of cells) Sub G0,"MDA-MB-231 cells; MDA-231, 40 μM",0.54%
same,Phase of cell cycle (% of cells) G1,"MDA-MB-231 cells; MDA-231, 100 μM",22.82%
same,Phase of cell cycle (% of cells) G2/M,"MDA-MB-231 cells; MDA-231, 100 μM",46.17%
same,Phase of cell cycle (% of cells) S,"MDA-MB-231 cells; MDA-231, 100 μM",30.99%
same,Phase of cell cycle (% of cells) Sub G0,"MDA-MB-231 cells; MDA-231, 100 μM",0.58%
same,phase of cell growth arrest,MDA-MB-231 cells; MDA-MB 231 cells,S-G2/M phase
same,Phase of cell cycle (% of cells) G1,"PC3 cells; PC3, 10 μM",50.74%
same,Phase of cell cycle (% of cells) G2/M,"PC3 cells; PC3, 10 μM",30.94%
same,Phase of cell cycle (% of cells) S,"PC3 cells; PC3, 10 μM",16.21%
same,Phase of cell cycle (% of cells) Sub G0,"PC3 cells; PC3, 10 μM",1.66%
same,Phase of cell cycle (% of cells) G1,"PC3 cells; PC3, 20 μM",48.96%
same,Phase of cell cycle (% of cells) G2/M,"PC3 cells; PC3, 20 μM",34.99%
same,Phase of cell cycle (% of cells) S,"PC3 cells; PC3, 20 μM",13.99%
same,Phase of cell cycle (% of cells) Sub G0,"PC3 cells; PC3, 20 μM",1.79%
same,Phase of cell cycle (% of cells) G1,"PC3 cells; PC3, 40 μM",44.26%
same,Phase of cell cycle (% of cells) G2/M,"PC3 cells; PC3, 40 μM",33.82%
same,Phase of cell cycle (% of cells) S,"PC3 cells; PC3, 40 μM",17.71%
same,Phase of cell cycle (% of cells) Sub G0,"PC3 cells; PC3, 40 μM",4.14%
same,Phase of cell cycle (% of cells) G1,"PC3 cells; PC3, 100 μM",42.92%
same,Phase of cell cycle (% of cells) G2/M,"PC3 cells; PC3, 100 μM",35.37%
same,Phase of cell cycle (% of cells) S,"PC3 cells; PC3, 100 μM",18.25%
same,Phase of cell cycle (% of cells) Sub G0,"PC3 cells; PC3, 100 μM",3.36%
same,cell count in S-G2/M phase,"PC3 cells; PC3, 100 μM, vehicle 45.41%",53.62%
same,phase of cell growth arrest,PC3 cells; PC3 cells,S-G2/M phase
same,percent viability and proliferation of the tumor cells,[1],significantly inhibited
same,percent viability and proliferation of the tumor cells,"[2]; MCF-7, 12, 24 and 48 h, concentration and time dependent",significantly inhibited
same,inhibitory effect compared with reference drugs,"[2]; MCF-7 cells, 10 μM, 48 h","stronger than that of Paclitaxel, or Cisplatin"
same,percent viability and proliferation of the tumor cells,[3],significantly inhibited
same,percent viability and proliferation of the tumor cells,[4],significantly inhibited
